# From patent US11752111B2, “Use of cannabidivarin in the treatment of autism spectrum disorder, associated disorders and schizophrenia” (GW Research Limited, priority 2016, dated 2023)
# Tests used:
# MeCP2 KO mice = test: Body weight gain in Rett syndrome model; assay type: in vivo, mouse
# Method: CBDV was administered daily at the dose of 2, 20 and 200 mg/kg i.p. starting from PND 28 and the following signs were scored every other day: hindlimb clasping (indication of motor imbalance), tremor, gait (measure of coordination), breathing, mobility and general condition.
# The CBDV was dissolved in ethanol, cremophor and saline (1:1:18).
# Starting from PND 28, mice received a daily intraperitoneal injection of CBDV (or vehicle) at the dose of 2, 20 and 200 mg/kg. Animals were then scored every other day to evaluate the effect of CBDV treatment on motor symptoms (hindlimb clasping, gait, mobility) as well as neurological signs and general conditions (breathing abnormalities, tremors and general condition) present in MeCP2 knockout (KO) mice.
# WT mice = test: Audiogenic seizure susceptibility, WT mice; assay type: in vivo, mouse; conditions: WT PND21
# Method: This trait was evaluated in PND21 mice after acute administration of the compounds or its vehicle, 30 min before starting the procedure. To measure audiogenic seizure sensitivity mice were placed individually into a novel environment, a glass cylinder (40 cm high, 16 cm diameter) and allowed to explore for 1 min. Next, a bell (100 dB) was rung for 30 sec and seizure activity scored according to the following scale: no response, 0; wild running, 1; clonic seizure, 2; tonic seizure, 3; status epilepticus/respiratory arrest/death, 4.
# On postnatal day 21 (PND21) WT and Fmr1 KO mice were injected with CBDV (2, 10, 20 or 100 mg/kg) or vehicle, 30 min before exposure to a bell ring (100 dB). Mice exposed to this noise for 30 sec ceased from their normal exploratory behaviour and reacted with gradually to wild-running, clonic seizure, tonic seizure or death. The maximum response was annotated for each mouse as detailed in Table 2 below. A score was calculated according to the severity of the symptoms as explained in the Methods section.
# VPA-exposed rats = test: Locomotor activity and repetitive behaviours (self-grooming), prenatal VPA model; assay type: in vivo, rat; conditions: VPA offspring
# Method: Pregnant Sprague-Dawley rats (Charles River, Calco, Italy), received a single intraperitoneal injection of 500 mg/kg sodium valproate on the 12.5 day after conception, and control females were injected with physiological saline at the same time. Sodium valproate (Sigma Aldrich, Milan, IT) was dissolved in saline at a concentration of 250 mg/ml.
# CBDV was dissolved in ethanol, cremophor and saline (1:1:18). Symptomatic treatment with CBDV at doses of 0.2, 2, 20, and 100 mg/kg/day i.p. was performed starting from PND 34 (early adolescence) till 56 (early adulthood), both in male and female offspring of dams injected with VPA 500 mg/kg (or vehicle) on day 12.5 after conception. At PND 56, a series of behavioural tests was performed in order to assess the effect of chronic CBDV on sociability, social novelty, short-term memory, locomotion and stereotyped/repetitive behaviours.
# Locomotor activity and repetitive behaviours: Locomotor activity was recorded in an activity cage for 20 minutes with the aid of Anymaze program (Ugo Basile, Italy). In this period, repetitive behaviours (self-grooming and digging) were measured by an observer blind to the treatment group.
# Ube3am-/p+ (AS) mice [1] = test: Clasping test in Angelman syndrome model; assay type: in vivo, mouse; conditions: CBDV 20 mg/kg i.p. chronic treatment (30 days); AS mice at 10 weeks of age vs AS vehicle
# Method: (§1) Heterozygous mice with maternal deficiency of Ube3A (Ube3am−/p+) and wild type (Ube3am+/p+) were purchased from The Jackson Laboratory (Jackson code: B6.129S7-Ube3a tm1Alb/J) and maintained in a C57BL/6 background.
# Drugs were dissolved in 1:1:18 ethanol:cremophor:0.9% saline, for intraperitoneal (i.p.) administration. […] CBDV was administered at 20 mg/kg.
# Clasping: The clasping test assesses ataxia in mice. Mice were suspended by the base of the tail and their behaviours were recorded for 30 seconds. The time for which the mice clasped their hind limbs was recorded. The time was then scored as follows: 4, 15-30 s, 3, 10-15 s, 2, 5-10 s, 1, 0-5 s and 0,0 s
# Ube3am-/p+ (AS) mice [2] = test: Novel object recognition in Angelman syndrome model; assay type: in vivo, mouse; conditions: CBDV 20 mg/kg i.p.; AS mice at 7-8 weeks vs AS vehicle
# Method: as §1
# Drugs were dissolved in 1:1:18 ethanol:cremophor:0.9% saline, for intraperitoneal (i.p.) administration. Drug treatment was performed daily for 35 days. CBDV was administered at 20 mg/kg.
# Novel Object Recognition: The novel object recognition assesses recognition memory in mice. The experiment started with the habituation period, during which mice were allowed to freely explore for 1 hour the apparatus which consists of a rectangular open box (40×30×30 cm width×length×height) made of grey polyvinyl chloride (PVC) illuminated by a dim light. The day after each mouse was allowed to explore two identical objects positioned in the back left and right corners for 5 min (acquisition). A video camera recorded the time spent on exploration of each object. […] The behaviour of mice was analyzed by an observer blind to the treatment. Data are expressed as percentage of recognition index (RI %), which was calculated as the percentage of the time spent exploring the novel object/time spent exploring the novel object+time spent exploring the familiar object×100.
smiles,measurement,setting,value
"C=C(C)[C@@H]1CCC(C)=C[C@H]1c1c(O)cc(CCC)cc1O [CBDV, Cannabidivarin]",body weight gain (FIG. 4A),"MeCP2 KO mice; 2, 20 and 200 mg/kg i.p. daily PND 28-66, MeCP2 KO mice",partially prevent the reduction in body weight
same,"body weight, area under the curve (FIG. 4B)",MeCP2 KO mice; KO mice,significantly rescued body weight
same,"body weight, area under the curve (FIG. 4B)",MeCP2 KO mice; WT controls,without affecting body weight
same,maximum response: Clonic seizure (number of mice),"WT mice; CBDV 2 mg/kg acute, n = 6",0
same,maximum response: Death (number of mice),"WT mice; CBDV 2 mg/kg acute, n = 6",0
same,maximum response: Tonic seizure (number of mice),"WT mice; CBDV 2 mg/kg acute, n = 6",0
same,maximum response: Wild running (number of mice),"WT mice; CBDV 2 mg/kg acute, n = 6",0
same,maximum response: Clonic seizure (number of mice),"WT mice; CBDV 10 mg/kg acute, n = 5",0
same,maximum response: Death (number of mice),"WT mice; CBDV 10 mg/kg acute, n = 5",0
same,maximum response: Tonic seizure (number of mice),"WT mice; CBDV 10 mg/kg acute, n = 5",0
same,maximum response: Wild running (number of mice),"WT mice; CBDV 10 mg/kg acute, n = 5",0
same,maximum response: Clonic seizure (number of mice),"WT mice; CBDV 20 mg/kg acute, n = 6",0
same,maximum response: Death (number of mice),"WT mice; CBDV 20 mg/kg acute, n = 6",0
same,maximum response: Tonic seizure (number of mice),"WT mice; CBDV 20 mg/kg acute, n = 6",0
same,maximum response: Wild running (number of mice),"WT mice; CBDV 20 mg/kg acute, n = 6",1
same,maximum response: Clonic seizure (number of mice),"WT mice; CBDV 100 mg/kg acute, n = 6",0
same,maximum response: Death (number of mice),"WT mice; CBDV 100 mg/kg acute, n = 6",0
same,maximum response: Tonic seizure (number of mice),"WT mice; CBDV 100 mg/kg acute, n = 6",0
same,maximum response: Wild running (number of mice),"WT mice; CBDV 100 mg/kg acute, n = 6",0
same,repetitive behaviours (compulsive self-grooming) (FIG. 2A),VPA-exposed rats; 20 mg/kg in males,significantly normalize
same,locomotor activity (FIG. 2B),"VPA-exposed rats; 2, 20 and 100 mg/kg in males",normalize
same,repetitive behaviours (compulsive self-grooming) (FIG. 2A),VPA-exposed rats; 2 and 100 mg/kg in females,significantly normalize
same,clasping duration (FIG. 11),Ube3am-/p+ (AS) mice [1],significantly reduced clasping duration
same,"discrimination index, novel object recognition (FIG. 13)",Ube3am-/p+ (AS) mice [2],significantly increased the discrimination index
